Reference: patent publication US20250262201A1, “COMPOUNDS AND METHODS USEFUL FOR STABILIZING PHENYLALANINE HYDROXYLASE MUTATIONS” (Agios Pharmaceuticals, Inc., priority 2022, published 2025)

What follows are compounds tested against T1, human PAH with the R408W mutation (Homo sapiens, UniProt P00439, R408W) (assay: Cell Based Phenylalanine Flux Assay). Details: A375 cells expressing human R408W PAH; 24 hrs compound incubation; 13C-Tyrosine by LC-MS; average where tested multiple times; read-out: AC50.
T1 construct: expressed in transfected cells
T1 sequence (P00439 1-452 R408W): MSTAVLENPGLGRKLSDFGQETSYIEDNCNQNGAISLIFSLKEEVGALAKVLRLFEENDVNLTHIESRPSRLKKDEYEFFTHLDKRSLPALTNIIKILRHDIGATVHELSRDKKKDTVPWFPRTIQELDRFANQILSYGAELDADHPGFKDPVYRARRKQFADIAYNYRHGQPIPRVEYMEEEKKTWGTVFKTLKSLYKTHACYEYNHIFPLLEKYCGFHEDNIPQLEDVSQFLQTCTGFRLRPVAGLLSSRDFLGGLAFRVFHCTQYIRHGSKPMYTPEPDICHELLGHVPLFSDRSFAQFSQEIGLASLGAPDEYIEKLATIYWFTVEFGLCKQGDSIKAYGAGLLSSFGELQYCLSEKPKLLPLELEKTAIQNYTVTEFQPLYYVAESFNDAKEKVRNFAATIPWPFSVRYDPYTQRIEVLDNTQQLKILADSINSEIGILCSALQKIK

Compared with `Cn1cc(-c2nnc(C(=O)N3CCc4[nH]cnc4[C@@H]3c3cc4ccccc4cn3)o2)cn1` [Example 323, (S)-(4-(isoquinolin-3-yl)-6,7-dihydro-1H-imidazo[4,5-c]pyridin-5(4H)-yl)(5-(1-methyl-1H-pyrazol-4-yl)-1,3,4-oxadiazol-2-yl)methanone], `O=C(c1nnc(-c2ccc(F)cn2)o1)N1CCc2[nH]cnc2[C@H]1c1cc2ccccc2cn1` [Example 340, (R)-(5-(5-fluoropyridin-2-yl)-1,3,4-oxadiazol-2-yl)(4-(isoquinolin-3-yl)-6,7-dihydro-1H-imidazo[4,5-c]pyridin-5(4H)-yl)methanone] is lower in AC50: > 5000 nM for the first, < 500 nM for the second.

Going from `O=C(c1nnc(-c2ccccn2)o1)N1CCc2[nH]cnc2[C@H]1c1cc2ccccc2cn1` [Example 324, (R)-(4-(isoquinolin-3-yl)-6,7-dihydro-1H-imidazo[4,5-c]pyridin-5(4H)-yl)(5-(pyridin-2-yl)-1,3,4-oxadiazol-2-yl)methanone] to `O=C(c1nnc(-c2ccccn2)o1)N1CCc2[nH]cnc2[C@@H]1c1cc2ccccc2cn1` [Example 325, (S)-(4-(isoquinolin-3-yl)-6,7-dihydro-1H-imidazo[4,5-c]pyridin-5(4H)-yl)(5-(pyridin-2-yl)-1,3,4-oxadiazol-2-yl)methanone], the AC50 rises from < 500 nM to > 5000 nM.

First: O=C(c1nnc(C2CC2)o1)N1CCc2[nH]cnc2[C@H]1c1cc2ccccc2cn1 [Example 326, (R)-(5-cyclopropyl-1,3,4-oxadiazol-2-yl)(4-(isoquinolin-3-yl)-6,7-dihydro-1H-imidazo[4,5-c]pyridin-5(4H)-yl)methanone]
Second: CC(C)(O)c1nnc(C(=O)N2CCc3[nH]cnc3[C@H]2c2cc3ccccc3cn2)o1 [Example 347, (R)-(5-(2-hydroxypropan-2-yl)-1,3,4-oxadiazol-2-yl)(4-(isoquinolin-3-yl)-6,7-dihydro-1H-imidazo[4,5-c]pyridin-5(4H)-yl)methanone]
The AC50 of the first is lower: < 500 nM for the first, 500 to 1000 nM for the second.

First: CC(C)(O)c1ncc(C(=O)N2CCc3[nH]cnc3[C@H]2c2cc3ccccc3cn2)s1 [Example 328, (R)-(2-(2-hydroxypropan-2-yl)thiazol-5-yl)(4-(isoquinolin-3-yl)-6,7-dihydro-1H-imidazo[4,5-c]pyridin-5(4H)-yl)methanone]
Second: CC(C)(O)c1ncc(C(=O)N2CCc3[nH]cnc3[C@@H]2c2cc3ccccc3cn2)s1 [Example 329, (S)-(2-(2-hydroxypropan-2-yl)thiazol-5-yl)(4-(isoquinolin-3-yl)-6,7-dihydro-1H-imidazo[4,5-c]pyridin-5(4H)-yl)methanone]
The AC50 of the first is lower: 500 to 1000 nM for the first, > 5000 nM for the second.

Compared with `CN(C)Cc1ccc2c(C(=O)N3CCc4[nH]cnc4[C@H]3c3cc4ccccc4cn3)cnn2c1` [Example 330, (R)-(6-((dimethylamino)methyl)pyrazolo[1,5-a]pyridin-3-yl)(4-(isoquinolin-3-yl)-6,7-dihydro-1H-imidazo[4,5-c]pyridin-5(4H)-yl)methanone], `CN(C)Cc1ccc2c(C(=O)N3CCc4[nH]cnc4[C@@H]3c3cc4ccccc4cn3)cnn2c1` [Example 331, (S)-(6-((dimethylamino)methyl)pyrazolo[1,5-a]pyridin-3-yl)(4-(isoquinolin-3-yl)-6,7-dihydro-1H-imidazo[4,5-c]pyridin-5(4H)-yl)methanone] is higher in AC50: < 500 nM for the first, > 5000 nM for the second.

Compared with `CC(C)(F)c1ncc(C(=O)N2CCc3[nH]cnc3[C@H]2c2cc3ccccc3cn2)s1` [Example 332, (R)-(2-(2-fluoropropan-2-yl)thiazol-5-yl)(4-(isoquinolin-3-yl)-6,7-dihydro-1H-imidazo[4,5-c]pyridin-5(4H)-yl)methanone], `CC(C)(F)c1ncc(C(=O)N2CCc3[nH]cnc3[C@@H]2c2cc3ccccc3cn2)s1` [Example 333, (S)-(2-(2-fluoropropan-2-yl)thiazol-5-yl)(4-(isoquinolin-3-yl)-6,7-dihydro-1H-imidazo[4,5-c]pyridin-5(4H)-yl)methanone] is higher in AC50: < 500 nM for the first, 1000 to 5000 nM for the second.

Compared with `O=C(c1nnc(-c2c(F)cccc2F)o1)N1CCc2[nH]cnc2[C@H]1c1cc2ccccc2cn1` [Example 334, (R)-(5-(2,6-difluorophenyl)-1,3,4-oxadiazol-2-yl)(4-(isoquinolin-3-yl)-6,7-dihydro-1H-imidazo[4,5-c]pyridin-5(4H)-yl)methanone], `O=C(c1nnc(-c2c(F)cccc2F)o1)N1CCc2[nH]cnc2[C@@H]1c1cc2ccccc2cn1` [Example 335, (S)-(5-(2,6-difluorophenyl)-1,3,4-oxadiazol-2-yl)(4-(isoquinolin-3-yl)-6,7-dihydro-1H-imidazo[4,5-c]pyridin-5(4H)-yl)methanone] is higher in AC50: < 500 nM for the first, 1000 to 5000 nM for the second.

First: Fc1ccc(-c2nnc(N3CCc4[nH]cnc4[C@@H]3c3cc4ccccc4cn3)o2)cc1 [Example 336, (S)-2-(4-fluorophenyl)-5-(4-(isoquinolin-3-yl)-6,7-dihydro-1H-imidazo[4,5-c]pyridin-5(4H)-yl)-1,3,4-oxadiazole]
Second: Fc1ccc(-c2nnc(N3CCc4[nH]cnc4[C@H]3c3cc4ccccc4cn3)o2)cc1 [Example 337, (R)-2-(4-fluorophenyl)-5-(4-(isoquinolin-3-yl)-6,7-dihydro-1H-imidazo[4,5-c]pyridin-5(4H)-yl)-1,3,4-oxadiazole]
The AC50 of the first is higher: > 5000 nM for the first, < 500 nM for the second.

Compared with `CC(C)(F)c1ncc(C(=O)N2CCc3[nH]cnc3[C@@H]2c2cc3ccccc3cn2)o1` [Example 338, (S)-(2-(2-fluoropropan-2-yl)oxazol-5-yl)(4-(isoquinolin-3-yl)-6,7-dihydro-1H-imidazo[4,5-c]pyridin-5(4H)-yl)methanone], `CC(C)(F)c1ncc(C(=O)N2CCc3[nH]cnc3[C@H]2c2cc3ccccc3cn2)o1` [Example 339, (R)-(2-(2-fluoropropan-2-yl)oxazol-5-yl)(4-(isoquinolin-3-yl)-6,7-dihydro-1H-imidazo[4,5-c]pyridin-5(4H)-yl)methanone] is lower in AC50: > 5000 nM for the first, < 500 nM for the second.

Compared with `O=C(c1nnc(-c2ccc(F)cn2)o1)N1CCc2[nH]cnc2[C@@H]1c1cc2ccccc2cn1` [Example 341, (S)-(5-(5-fluoropyridin-2-yl)-1,3,4-oxadiazol-2-yl)(4-(isoquinolin-3-yl)-6,7-dihydro-1H-imidazo[4,5-c]pyridin-5(4H)-yl)methanone], `O=C(c1nnc(-c2ccc(F)cc2)o1)N1CCc2[nH]cnc2[C@H]1c1cc2ccccc2cn1` [Example 342, (R)-(5-(4-fluorophenyl)-1,3,4-oxadiazol-2-yl)(4-(isoquinolin-3-yl)-6,7-dihydro-1H-imidazo[4,5-c]pyridin-5(4H)-yl)methanone] is lower in AC50: > 5000 nM for the first, < 500 nM for the second.

Compared with `O=C(c1nnc(-c2ccc(F)cc2)o1)N1CCc2[nH]cnc2[C@@H]1c1cc2ccccc2cn1` [Example 343, (S)-(5-(4-fluorophenyl)-1,3,4-oxadiazol-2-yl)(4-(isoquinolin-3-yl)-6,7-dihydro-1H-imidazo[4,5-c]pyridin-5(4H)-yl)methanone], `O=C(c1ocnc1-c1ccccc1)N1CCc2[nH]cnc2[C@H]1c1cc2ccccc2cn1` [Example 348, (R)-(4-(isoquinolin-3-yl)-6,7-dihydro-1H-imidazo[4,5-c]pyridin-5(4H)-yl)(4-phenyloxazol-5-yl)methanone] is lower in AC50: > 5000 nM for the first, < 500 nM for the second.

First: CC(C)(F)c1ccc2c(C(=O)N3CCc4[nH]cnc4[C@H]3c3cc4ccccc4cn3)cnn2c1 [Example 344, (R)-(6-(2-fluoropropan-2-yl)pyrazolo[1,5-a]pyridin-3-yl)(4-(isoquinolin-3-yl)-6,7-dihydro-1H-imidazo[4,5-c]pyridin-5(4H)-yl)methanone]
Second: O=C(c1cnn2cc(Br)ccc12)N1CCc2[nH]cnc2[C@H]1c1cc2ccccc2cn1 [Example 352, (R)-(6-bromopyrazolo[1,5-a]pyridin-3-yl)(4-(isoquinolin-3-yl)-6,7-dihydro-1H-imidazo[4,5-c]pyridin-5(4H)-yl)methanone]
The AC50 of the first is higher: 500 to 1000 nM for the first, < 500 nM for the second.

First: Cc1nnc(CCC(=O)N2CCc3[nH]cnc3[C@H]2c2cc3ccccc3cn2)o1 [Example 345, (R)-1-(4-(isoquinolin-3-yl)-6,7-dihydro-1H-imidazo[4,5-c]pyridin-5(4H)-yl)-3-(5-methyl-1,3,4-oxadiazol-2-yl)propan-1-one]
Second: O=C(CCc1nnc(C(F)F)o1)N1CCc2[nH]cnc2[C@H]1c1cc2ccccc2cn1 [Example 346, (R)-3-(5-(difluoromethyl)-1,3,4-oxadiazol-2-yl)-1-(4-(isoquinolin-3-yl)-6,7-dihydro-1H-imidazo[4,5-c]pyridin-5(4H)-yl)propan-1-one]
The AC50 of the first is lower: 500 to 1000 nM for the first, 1000 to 5000 nM for the second.

`O=C(Cc1nncs1)N1CCc2[nH]cnc2[C@H]1c1cc2ccccc2cn1` [Example 349, (R)-1-(4-(isoquinolin-3-yl)-6,7-dihydro-1H-imidazo[4,5-c]pyridin-5(4H)-yl)-2-(1,3,4-thiadiazol-2-yl)ethanone] and `O=C(c1nncs1)N1CCc2[nH]cnc2[C@H]1c1cc2ccccc2cn1` [Example 350, (R)-(4-(isoquinolin-3-yl)-6,7-dihydro-1H-imidazo[4,5-c]pyridin-5(4H)-yl)(1,3,4-thiadiazol-2-yl)methanone] cannot be ordered by AC50: < 500 nM for the first, < 500 nM for the second.

First: Cc1nnc(CC(=O)N2CCc3[nH]cnc3[C@H]2c2cc3ccccc3cn2)s1 [Example 351, (R)-1-(4-(isoquinolin-3-yl)-6,7-dihydro-1H-imidazo[4,5-c]pyridin-5(4H)-yl)-2-(5-methyl-1,3,4-thiadiazol-2-yl)ethanone]
Second: O=C(c1ncn2ccccc12)N1CCc2[nH]cnc2[C@H]1c1cc2ccccc2cn1 [Example 353, (R)-imidazo[1,5-a]pyridin-1-yl(4-(isoquinolin-3-yl)-6,7-dihydro-1H-imidazo[4,5-c]pyridin-5(4H)-yl)methanone]
The AC50 of the first is higher: 500 to 1000 nM for the first, < 500 nM for the second.
